From patent US20020048549A1, “Radioactive transition metal nitride heterocomplex” (priority 1996, published 2002)
Read-outs that look alike come from different tables or passages of the source.

Experiment: Biodistribution of 99mTc(N)(X)(DTC)+ heterocomplexes in rats
Assay type: in vivo, male Spraque-Dawley rats (SD rats)
Description: The biodistribution of a ^99mTc nitride heterocomplex represented by the general formula ^99mTc(N)(X)(Y) was investigated as follows: ^99mTc nitride heterocomplexes were synthesized using DTC as a bidentate ligand Y and each of the diphosphine compounds X described below, and the biodistribution in rats of each heterocomplex was investigated.
Before being injected into rats, the contents of the vial were diluted with phosphate buffer (0.1 mol/dm^3, pH=7.06) containing 10% Tween 80 ([…]). The complexes were stable in the solutions and in human plasma for at least 6 hours.
The biodistribution was measured using male Spraque-Dawley rats (SD rats) weighing 200 to 250 g. After 24 hours fasting, the rats were put under intraperitoneal anesthesia and given an injection in the jugular vein. Then, the organs were excised from the rats at different intervals of time, washed and then weighed. In addition, blood samples were collected and then weighed. The data on the biodistribution are expressed as the mean±significant difference of the percentage of radioactivity level per gram of the organ weight based on the dose of radioactivity, (% dose/g). The measurement was carried out using groups of 5 rats each.

CCCN1CC[P+](c2ccccc2)(c2ccccc2)[99Tc-2]2(#[N])([NH]N(C)C(SC)=[S+]2)[P+](c2ccccc2)(c2ccccc2)CC1 [^99mTc(N)(PNP1)(DTC)^+]
Bone % dose/g: 0.244 ± 0.01 % dose/g
Heart % dose/g: 1.236 ± 0.08 % dose/g
Liver % dose/g: 3.593 ± 0.42 % dose/g
Spleen % dose/g: 1.948 ± 0.20 % dose/g
Blood % dose/g (0 min after injection): 2.125 ± 0.3 % dose/g
Brain % dose/g (0 min after injection): 0.143 ± 0.02 % dose/g
Intestine % dose/g (0 min after injection): 0.418 ± 0.03 % dose/g
Kidney % dose/g (0 min after injection): 2.66 ± 0.05 % dose/g
Lung % dose/g (0 min after injection): 5.815 ± 0.04 % dose/g
Muscle % dose/g (0 min after injection): 0.098 ± 0.00 % dose/g
Stomach % dose/g (0 min after injection): 0.337 ± 0.00 % dose/g
Blood % dose/g (2 min after injection): 1.062 ± 0.13 % dose/g
Bone % dose/g (2 min after injection): 0.234 ± 0.06 % dose/g
Brain % dose/g (2 min after injection): 0.086 ± 0.00 % dose/g
Heart % dose/g (2 min after injection): 0.824 ± 0.01 % dose/g
Intestine % dose/g (2 min after injection): 0.471 ± 0.00 % dose/g
Kidney % dose/g (2 min after injection): 4.145 ± 0.64 % dose/g
Liver % dose/g (2 min after injection): 5.555 ± 0.83 % dose/g
Lung % dose/g (2 min after injection): 4.653 ± 0.65 % dose/g
Muscle % dose/g (2 min after injection): 0.085 ± 0.01 % dose/g
Spleen % dose/g (2 min after injection): 4.459 ± 0.09 % dose/g
Stomach % dose/g (2 min after injection): 0.379 ± 0.02 % dose/g
Blood % dose/g (10 min after injection): 0.495 ± 0.01 % dose/g
Bone % dose/g (10 min after injection): 0.3 ± 0.05 % dose/g
Brain % dose/g (10 min after injection): 0.041 ± 0.00 % dose/g
Heart % dose/g (10 min after injection): 0.795 ± 0.06 % dose/g
Intestine % dose/g (10 min after injection): 0.704 ± 0.08 % dose/g
Kidney % dose/g (10 min after injection): 4.251 ± 0.02 % dose/g
Liver % dose/g (10 min after injection): 5.795 ± 0.03 % dose/g
Lung % dose/g (10 min after injection): 3.191 ± 0.60 % dose/g
Muscle % dose/g (10 min after injection): 0.121 ± 0.02 % dose/g
Spleen % dose/g (10 min after injection): 7.237 ± 0.88 % dose/g
Stomach % dose/g (10 min after injection): 0.438 ± 0.03 % dose/g
Blood % dose/g (30 min after injection): 0.285 ± 0.01 % dose/g
Bone % dose/g (30 min after injection): 0.324 ± 0.05 % dose/g
Brain % dose/g (30 min after injection): 0.027 ± 0.00 % dose/g
Heart % dose/g (30 min after injection): 0.513 ± 0.07 % dose/g
Intestine % dose/g (30 min after injection): 1.107 ± 0.31 % dose/g
Kidney % dose/g (30 min after injection): 4.095 ± 0.73 % dose/g
Liver % dose/g (30 min after injection): 5.976 ± 0.49 % dose/g
Lung % dose/g (30 min after injection): 2.089 ± 0.16 % dose/g
Muscle % dose/g (30 min after injection): 0.106 ± 0.00 % dose/g
Spleen % dose/g (30 min after injection): 5.884 ± 2.7 % dose/g
Stomach % dose/g (30 min after injection): 0.444 ± 0.09 % dose/g
Blood % dose/g (1 hr after injection): 0.311 ± 0.03 % dose/g
Bone % dose/g (1 hr after injection): 0.398 ± 0.12 % dose/g
Brain % dose/g (1 hr after injection): 0.019 ± 0.00 % dose/g
Heart % dose/g (1 hr after injection): 0.55 ± 0.04 % dose/g
Intestine % dose/g (1 hr after injection): 0.896 ± 0.04 % dose/g
Kidney % dose/g (1 hr after injection): 4.779 ± 0.21 % dose/g
Liver % dose/g (1 hr after injection): 5.116 ± 0.00 % dose/g
Lung % dose/g (1 hr after injection): 1.586 ± 0.16 % dose/g
Muscle % dose/g (1 hr after injection): 0.302 ± 0.39 % dose/g
Spleen % dose/g (1 hr after injection): 6.711 ± 1.27 % dose/g
Stomach % dose/g (1 hr after injection): 0.625 ± 0.34 % dose/g
Blood % dose/g (2 hr after injection): 0.22 ± 0.05 % dose/g
Bone % dose/g (2 hr after injection): 0.347 ± 0.01 % dose/g
Brain % dose/g (2 hr after injection): 0.025 ± 0.00 % dose/g
Heart % dose/g (2 hr after injection): 0.603 ± 0.05 % dose/g
Intestine % dose/g (2 hr after injection): 0.977 ± 0.42 % dose/g
Kidney % dose/g (2 hr after injection): 5.327 ± 0.52 % dose/g
Liver % dose/g (2 hr after injection): 3.524 ± 0.53 % dose/g
Lung % dose/g (2 hr after injection): 1.716 ± 0.23 % dose/g
Muscle % dose/g (2 hr after injection): 0.111 ± 0.01 % dose/g
Spleen % dose/g (2 hr after injection): 4.747 ± 1.78 % dose/g
Stomach % dose/g (2 hr after injection): 0.776 ± 0.07 % dose/g
Blood % dose/g (4 hr after injection): 0.137 ± 0.02 % dose/g
Bone % dose/g (4 hr after injection): 0.264 ± 0.10 % dose/g
Brain % dose/g (4 hr after injection): 0.021 ± 0.00 % dose/g
Heart % dose/g (4 hr after injection): 0.382 ± 0.04 % dose/g
Intestine % dose/g (4 hr after injection): 0.906 ± 0.24 % dose/g
Kidney % dose/g (4 hr after injection): 4.282 ± 0.67 % dose/g
Liver % dose/g (4 hr after injection): 2.604 ± 0.25 % dose/g
Lung % dose/g (4 hr after injection): 1.08 ± 0.16 % dose/g
Muscle % dose/g (4 hr after injection): 0.077 ± 0.01 % dose/g
Spleen % dose/g (4 hr after injection): 6.294 ± 1.29 % dose/g
Stomach % dose/g (4 hr after injection): 0.719 ± 0.18 % dose/g
